Laboratory results reported in US9896441B2 (Lycera Corporation, priority 2014, dated 2018).

molecular target: T1, RORγ-LBD (Homo sapiens, UniProt P51449); experiment: RORγ-Ligand Binding Domain (LBD) TR-FRET Assay; type: biochemical; details: RORγ-LBD TR-FRET;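 on TR-FRET Assay Max Response: 665/615 nm signal ratio set to 100 without ursolic acid or test compound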
T1 construct: made in house; host or cells: SF9 cells (baculovirus); used as diluted lysate
T1 sequence (P51449 269-508 limits assumed): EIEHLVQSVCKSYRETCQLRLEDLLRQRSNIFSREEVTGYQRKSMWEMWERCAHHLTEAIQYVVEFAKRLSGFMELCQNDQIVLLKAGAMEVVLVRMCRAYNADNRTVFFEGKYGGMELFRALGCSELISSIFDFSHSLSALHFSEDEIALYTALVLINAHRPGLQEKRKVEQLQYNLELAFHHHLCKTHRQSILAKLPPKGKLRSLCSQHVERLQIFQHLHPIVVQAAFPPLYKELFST
Procedure, shortened: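 TR-FRET read-out using a biotin-tagged SRC1 coactivator LXXLL peptide (200 nM final), with the antagonist ursolic acid present at 2 μM final. Receptor is His-tagged LBD expressed in SF9 cells, ~3 nM final in pH 7.0 Tris/KCl/EDTA/DTT/BSA buffer; compounds in 1% DMSO final.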

EC50 [nM]	Compound
< 500	CCOc1nn(CC)cc1S(=O)(=O)N1C[C@H](CNC(C)=O)Oc2ccc(NCc3c(F)cccc3Cl)cc21 [Example 28G]
> 10000	O=C(O)CC[C@H]1CN(S(=O)(=O)c2cccc(C(F)(F)F)c2)c2cc(/C=C/c3cccc4cn[nH]c34)ccc2O1 [Example 89BL, (S,E)-3-(6-(2-(1H-indazol-7-yl)vinyl)-4-((3-(trifluoromethyl)phenyl)sulfonyl)-3,4-dihydro-2H-benzo[b][1,4]oxazin-2-yl)propanoic acid]
> 10000	CC(=O)c1cccc(/C=C/c2ccc3c(c2)N(S(=O)(=O)c2cccc(C(F)(F)F)c2)C[C@H](CCC(=O)O)O3)n1 [Example 89BX, (S,E)-3-(6-(2-(6-acetylpyridin-2-yl)vinyl)-4-((3-(trifluoromethyl)-phenyl)sulfonyl)-3,4-dihydro-2H-benzo[b][1,4]oxazin-2-yl)propanoic acid]
500 to 5000	O=C(O)CC[C@H]1CN(S(=O)(=O)c2cccc(C(F)(F)F)c2)c2cc(/C=C/c3ccnn4cccc34)ccc2O1 [Example 89BM, (S,E)-3-(6-(2-(pynolo[1,2-b]pyridazin-4-yl)vinyl)-4-((3-(trifluoromethyl)phenyl)sulfonyl)-3,4-dihydro-2H-benzo[b][1,4]oxazin-2-yl)propanoic acid]

same assay, conditions: RORγ-LBD TR-FRET assay

EC50 [nM]	Compound
< 500	COC(=O)N[C@@H]1Cc2ccc(/C=C(\C)c3c(F)cccc3Cl)cc2N(S(=O)(=O)c2cccc(C(F)(F)F)c2)[C@@H]1C [Example 143, Methyl ((2R,3R)-7-((E)-2-(2-chloro-6-fluorophenyl)prop-1-en-1-yl)-2-methyl-1-((3-(trifluoromethyl)phenyl)sulfonyl)-1,2,3,4-tetrahydroquinolin-3-yl)carbamate]

same assay, conditions: RORγ-LBD TR-FRET assay, maximum response

Compound	TR-FRET Assay Max Response
COC(=O)N[C@@H]1Cc2ccc(/C=C(\C)c3c(F)cccc3Cl)cc2N(S(=O)(=O)c2cccc(C(F)(F)F)c2)[C@@H]1C [Example 143, Methyl ((2R,3R)-7-((E)-2-(2-chloro-6-fluorophenyl)prop-1-en-1-yl)-2-methyl-1-((3-(trifluoromethyl)phenyl)sulfonyl)-1,2,3,4-tetrahydroquinolin-3-yl)carbamate]	** (a value in the range of greater than 90 to 150)

same assay, conditions: with 2 μM ursolic acid (RORγ antagonist); highest test concentration 10 μM

EC50 [nM]	Compound
< 500	O=C(O)C1Cc2ccc(OCc3cc(C(F)(F)F)ccc3F)cc2N(S(=O)(=O)c2cccc(C(F)(F)F)c2)C1 (stereo not drawn)
< 500	Cc1nn(C(F)F)cc1S(=O)(=O)N1CC(CO)Cc2ccc(OCc3c(F)cccc3Cl)cc21 (stereo not drawn) [drawing 1601]
< 500	COc1cc(S(=O)(=O)N2CC(CO)Cc3ccc(OCc4c(F)cccc4Cl)cc32)ccc1F (stereo not drawn)

molecular target: T2, Gal4-RORγ-LBD (Homo sapiens, UniProt P51449); experiment: Gal4-RORγ Luciferase Reporter Assay in HEK-293T Cells; type: cell-based; details: HEK-293 cells, luciferase reporter, in presence of ursolic acid
T2 construct: expressed in transfected cells
T2 sequence (P51449 269-508 limits assumed): T1 sequence (P51449 269-508 limits assumed)
Protocol: Assay procedures and results are described below.
In the following protocol, HEK-293 cells were transfected with a construct comprising the Gal4 DNA binding domain fused to the ligand binding domain of RORγ (Gal4-RORγ-LBD) in a pcDNA3.1neo plasmid, and also with a reporter construct comprising pGL4.31 Gal4-luciferase (Promega). Control cells were prepared similarly using empty pcDNA3.1neo and pGL4.31 vectors.
Trans-IT reagent (Mirus, 60 μL) at room temperature was added drop wise to OptiMEM (Invitrogen, 1.5 ml). This reagent mixture was mixed by inversion then incubated for 5 to 30 minutes at room temperature. It then was added to a solution of both expression vectors (5 μg each), mixed, and incubated at room temperature for about 20 minutes. HEK-293 cells were harvested from incubation flasks by removing the media, treating with TrypLE Express (Invitrogen), and incubating until the cells detached from the bottom of the flask (approximately 2-5 minutes). 10 Million cells were collected by centrifugation and re-suspended in 10 mL of Dulbecco's Modified Eagle Medium, High Glucose (DMEM, Invitrogen) containing 10% Fetal Bovine Serum and 100 IU each of penicillin and streptomycin. The re-suspended cells and the transfection mixture were added to a T75 flask, mixed and incubated overnight at 37° C. and 5% CO2.
The cells were harvested as described above, counted, and centrifuged to obtain the desired number of cells, then re-suspended in complete growth media at 0.75×10^6 cells/mL. The RORγ antagonist, ursolic acid, was added to the cells at a final concentration of […]. Cells were plated at 20 µL of cell suspension/well (10,000-15,000 cells/well) in white tissue culture treated 384 well plates. Test compounds were dissolved at 10 mM in DMSO then diluted into complete growth medium to 5× the final intended test concentration. These drug stock solutions, 5 µL/well were added to the tissue culture plate. The final DMSO concentration was 0.2%. The plates were briefly centrifuged then incubated overnight at 37° C. and 5% CO2. To conduct the assay, the tissue culture plates were allowed to equilibrate to room temperature and One-Glo luciferase reagent (Promega, 25 µL/well) was added. The plates were briefly centrifuged then incubated at room temperature for 10 minutes. The luciferase intensity was read on an Envision plate reader (Perkin Elmer). […] The luciferase signal in the absence of ursolic acid or test compound is defined at 100. The Max Response is the upper plateau in the signal as determined by line-fit using a 4-parameter logistic model in PRISM (GraphPad).

EC50 [nM]	Compound
< 500	CC(=O)NC1CN(C(=O)CC[C@H]2CN(S(=O)(=O)c3cccc(C(F)(F)F)c3)c3cc(/C=C(\C)c4c(F)cccc4Cl)ccc3O2)C1 [Example 127N, (S,E)-N-(1-(3-(6-(2-(2-chloro-6-fluorophenyl)-prop-1-en-1-yl)-4-((3-(trifluoromethyl)phenyl)-sulfonyl)-3,4-dihydro-2H-benzo[b][1,4]oxazin-2-yl)propanoyl)azetidin-3-yl)acetamide]
< 500	C/C(=C\c1ccc2c(c1)N(S(=O)(=O)c1cccc(C(F)(F)F)c1)C[C@H](CCC(=O)N1CC(C#N)C1)O2)c1c(F)cccc1Cl [Example 127M, (S,E)-1-(3-(6-(2-(2-chloro-6-fluorophenyl)-prop-1-en-1-yl)-4-((3-(trifluoromethyl)phenyl)-sulfonyl)-3,4-dihydro-2H-benzo[b][1,4]oxazin-2-yl)propanoyl)azetidine-3-carbonitrile]
< 500	C/C(=C\c1ccc2c(c1)N(S(=O)(=O)c1cccc(C(F)(F)F)c1)C[C@H](CCC(=O)NCCC(=O)O)O2)c1c(F)cccc1Cl [Example 129P, (S,E)-3-(3-(6-(2-(2-chloro-6-fluorophenyl)-prop-1-en-1-yl)-4-((3-(trifluoromethyl)phenyl)-sulfonyl)-3,4-dihydro-2H-benzo[b][1,4]oxazin-2-yl)propanamido)-propanoic acid]

same assay, conditions: HEK-293 cells, luciferase reporter, in presence of ursolic acid, maximum response

Compound	Gal4-RORγ Assay Max Response
CC(=O)NC1CN(C(=O)CC[C@H]2CN(S(=O)(=O)c3cccc(C(F)(F)F)c3)c3cc(/C=C(\C)c4c(F)cccc4Cl)ccc3O2)C1 [Example 127N, (S,E)-N-(1-(3-(6-(2-(2-chloro-6-fluorophenyl)-prop-1-en-1-yl)-4-((3-(trifluoromethyl)phenyl)-sulfonyl)-3,4-dihydro-2H-benzo[b][1,4]oxazin-2-yl)propanoyl)azetidin-3-yl)acetamide]	** (a value in the range of greater than 90 to 150)
C/C(=C\c1ccc2c(c1)N(S(=O)(=O)c1cccc(C(F)(F)F)c1)C[C@H](CCC(=O)N1CC(C#N)C1)O2)c1c(F)cccc1Cl [Example 127M, (S,E)-1-(3-(6-(2-(2-chloro-6-fluorophenyl)-prop-1-en-1-yl)-4-((3-(trifluoromethyl)phenyl)-sulfonyl)-3,4-dihydro-2H-benzo[b][1,4]oxazin-2-yl)propanoyl)azetidine-3-carbonitrile]	** (a value in the range of greater than 90 to 150)
C/C(=C\c1ccc2c(c1)N(S(=O)(=O)c1cccc(C(F)(F)F)c1)C[C@H](CCC(=O)N1CC(O)C1)O2)c1c(F)cccc1Cl [Example 127L, (S,E)-3-(6-(2-(2-chloro-6-fluorophenyl)prop-1-en-1-yl)-4-((3-(trifluoro-methyl)phenyl)sulfonyl)-3,4-dihydro-2H-benzo[b][1,4]oxazin-2-yl)-1-(3-hydroxyazetidin-1-yl)propan-1-one]	* (a value in the range of 30 to 90)
C/C(=C\c1ccc2c(c1)N(S(=O)(=O)c1cccc(C(F)(F)F)c1)C[C@H](CCC(=O)N1C3CCC1COC3)O2)c1c(F)cccc1Cl [Example 127K, 1-(3-oxa-8-azabicyclo-[3.2.1]octan-8-yl)-3-((S)-6-((E)-2-(2-chloro-6-fluorophenyl)prop-1-en-1-yl)-4-((3-(trifluoro-methyl)phenyl)sulfonyl)-3,4-dihydro-2H-benzo[b][1,4]oxazin-2-yl)propan-1-one]	** (a value in the range of greater than 90 to 150)
C/C(=C\c1ccc2c(c1)N(S(=O)(=O)c1cccc(C(F)(F)F)c1)C[C@H](CCC(=O)NCCC(=O)O)O2)c1c(F)cccc1Cl [Example 129P, (S,E)-3-(3-(6-(2-(2-chloro-6-fluorophenyl)-prop-1-en-1-yl)-4-((3-(trifluoromethyl)phenyl)-sulfonyl)-3,4-dihydro-2H-benzo[b][1,4]oxazin-2-yl)propanamido)-propanoic acid]	*** (a value in the range of greater than 150 to 200)

same assay, conditions: HEK-293 cells, luciferase reporter, with ursolic acid

EC50 [nM]	Compound
500 to 5000	O=C(O)CC[C@H]1CN(S(=O)(=O)c2cccc(C(F)(F)F)c2)c2cc(/C=C3\CCCOC3)ccc2O1 [Example 95I, (S,E)-3-(6-((dihydro-2H-pyran-3(4H)-ylidene)methyl)-4-((3-(trifluoromethyl)phenyl)sulfonyl)-3,4-dihydro-2H-benzo[b][1,4]oxazin-2-yl)propanoic acid]
> 10000	COC(=O)CC[C@H]1CN(S(=O)(=O)c2cccc(C(F)(F)F)c2)c2cc(/C=C/c3cccnc3C(F)(F)F)ccc2O1 [Example 89DF, methyl (S,E)-3-(4-((3-(trifluoromethyl)phenyl)-sulfonyl)-6-(2-(2-(trifluoromethyl)pyridin-3-yl)vinyl)-3,4-dihydro-2H-benzo[b][1,4]oxazin-2-yl)propanoate]
> 10000	COC(=O)CC[C@H]1CN(S(=O)(=O)c2cccc(C(F)(F)F)c2)c2cc(/C=C/c3ncccc3F)ccc2O1 [Example 89DG, methyl (S,E)-3-(6-(2-(3-fluoropyridin-2-yl)vinyl)-4-((3-(trifluoromethyl)phenyl)-sulfonyl)-3,4-dihydro-2H-benzo[b][1,4]oxazin-2-yl)propanoate]
< 500	C/C(=C\c1ccc2c(c1)N(S(=O)(=O)c1cc(F)cc(C(F)(F)F)c1)C[C@H](CCC(=O)O)O2)c1c(F)cccc1Cl [Example 86AQ, (S,E)-3-(6-(2-(2-chloro-6-fluorophenyl)-prop-1-en-1-yl)-4-((3-fluoro-5-(trifluoromethyl)-phenyl)sulfonyl)-3,4-dihydro-2H-benzo[1,4]oxazin-2-yl)propanoic acid]
500 to 5000	CC(C)c1ccccc1/C=C/c1ccc2c(c1)N(S(=O)(=O)c1cccc(C(F)(F)F)c1)C[C@H](CCC(=O)O)O2 [Example 89CB, (S,E)-3-(6-(2-isopropylstyryl)-4-((3-(trifluoromethyl)-phenyl)-sulfonyl)-3,4-dihydro-2H-benzo[b][1,4]oxazin-2-yl)propanoic acid]
< 500	CC/C(=C\c1ccc2c(c1)N(S(=O)(=O)c1cccc(C(F)(F)F)c1)C[C@H](CCC(=O)O)O2)c1ccccc1Cl [Example 36A, (S,E)-3-(6-(2-(2-chlorophenyl)but-1-en-1-yl)-4-((3-(trifluoromethyl)-phenyl)sulfonyl)-3,4-dihydro-2H-benzo[b][1,4]oxazin-2-yl)propanoic acid]
500 to 5000	O=C(O)CC[C@H]1CN(S(=O)(=O)c2cccc(C(F)(F)F)c2)c2cc(/C=C3\CCc4ccccc43)ccc2O1 [Example 38C, (S,E)-3-(6-((2,3-dihydro-1H-inden-1-ylidene)methyl)-4-((3-(trifluoromethyl)phenyl)sulfonyl)-3,4-dihydro-2H-benzo[b][1,4]-oxazin-2-yl)propanoic acid]
